Tests used:
erythrocyte suspension = assay: Hemolytic assay (erythrocyte lysis assay); type: cell-based; details: for % Hemolysis: 30 μg peptide, 18 hr at 37° C., 100% lysis = 1% NP40
Experimental: The hemolytic activity of each peptide was examined using an erythrocyte lysis assay. An 8% (vol:vol) erythrocyte suspension in normal saline or in 80% mouse serum was incubated with 30 μg peptide. After 18 hr incubation at 37° C. intact erythrocytes were removed by centrifugation and the A550 of the supernatant was determined as a measure of hemolysis. As a control (100% lysis), supernatant was collected from an erythrocyte suspension treated with 1% NP40 detergent.

Escherichia coli ML35 [1] = assay: Agar diffusion assay, E. coli; type: cell-based; details: E. coli ML35, FIG. 4
Experimental: (§1) The broad spectrum antimicrobial activity of indolicidin and indolicidin analogs also was determined using a gram negative bacterial strain, Escherichia coli ML35, a gram positive bacterial strain, Staphylococcus aureus 502A, and a fungus, Cryptococcus neoformans, in an agar diffusion assay, essentially as described by Hultmark et al., EMBO J. 2:571-576 (1983) as modified by Lehrer et al., J. Immunol. Meth. 137:167-173. Briefly, nutrient-containing agar (or agarose) plates were seeded with a selected target microorganism and 5-10 μl of peptide was placed into a well formed in the solid medium or onto a disc placed on the surface of the medium. Following an appropriate incubation interval, microbial growth inhibition was visualized and quantitated by measuring the clear zone around each well or disc (see, also, Selsted, 1993).

[2] = test system: Staphylococcus aureus 502A; assay: Agar diffusion assay, S. aureus; type: cell-based; details: S. aureus 502a, FIG. 6
Experimental: as §1

Cryptococcus neoformans = assay: Agar diffusion assay, C. neoformans; type: cell-based; details: FIG. 5
Experimental: as §1

Escherichia coli ML35 [3] = assay: Dose response bactericidal assay (CFU reduction), E. coli; type: cell-based; details: 2 hr incubation
Experimental: (§2) The time course and dose-dependence of the antimicrobial activity of an indolicidin analog can be determined by incubating a microorganism with the analog and determining the viability after various times of incubation or after treatment with various concentrations of the analog. Assays were performed in 10 mM sodium phosphate buffer, pH 7.4, at 37° C., as described by Selsted et al. (Infect. Immun. 45:150-154 (1985), which is incorporated herein by reference).
(§3) The dose response of a gram negative bacterial strain, Escherichia coli ML35, and a gram positive bacterial strain, Staphylococcus aureus 502A, to indolicidin was determined by incubating 2×10^6 colony forming units (CFU) of log phase bacteria with 0-25 ug/ml of indolicidin for two hours. Following incubation, the cultures were serially diluted and plated on nutrient agar. […] E. coli was more susceptible than S. aureus, as>95% of the input cells were killed after 2 hr incubation with 2.5 ug/ml indolicidin. The indolicidin diluent, 0.01% acetic acid, had no effect on either bacterial strain.

[4] = test system: Staphylococcus aureus 502A; assay: Dose response bactericidal assay (CFU reduction), S. aureus; type: cell-based; details: 10 ug/ml, 2 hr incubation, 2×10^6 CFU, 10 mM sodium phosphate pH 7.4, 37° C.
Experimental: as §2, §3

E. coli = assay: Microbicidal kinetics of indolicidin; type: cell-based, Escherichia coli; details: 25 μg/ml
Experimental: as §2
The kinetics of indolicidin antimicrobial activity was evaluated by incubating 2×10^6 E. coli with 25 ug/ml of indolicidin for 1-40 min. Following incubation for the appropriate time, an aliquot of the culture was removed and diluted and plated as described above.

[5] = five attempts to raise antibodies
[6] = saline, 8% erythrocyte suspension in normal saline
[7] = serum, 8% erythrocyte suspension in 80% mouse serum

| Compound | % Hemolysis (erythrocyte suspension; [6]) | % Hemolysis (erythrocyte suspension; [7]) | antimicrobial activity (clear zone) compared with indolicidin (Escherichia coli ML35 [1]) | antimicrobial activity (clear zone) compared with indolicidin [2] | antimicrobial activity (clear zone) compared with indolicidin (Cryptococcus neoformans) | further results |
| --- | --- | --- | --- | --- | --- | --- |
| CC[C@H](C)[C@H](N)C(=O)N[C@@H](CC(C)C)C(=O)N1CCC[C@H]1C(=O)N[C@@H](Cc1c[nH]c2ccccc12)C(=O)N[C@@H](CCCCN)C(=O)N[C@@H](Cc1c[nH]c2ccccc12)C(=O)N1CCC[C@H]1C(=O)N[C@@H](Cc1c[nH]c2ccccc12)C(=O)N[C@@H](Cc1c[nH]c2ccccc12)C(=O)N1CCC[C@H]1C(=O)N[C@@H](Cc1c[nH]c2ccccc12)C(=O)N[C@@H](CCCNC(=N)N)C(=O)N[C@@H](CCCNC(=N)N)C(=O)O [Indol-R12 R13 --OH, H2 N--I--L--P--W--K--W--P--W--W--P--W--R--R--OH] | 47.9% | 3.0% | – | – | – | – |
| H2 N--I--L--P--W--K--W--P--W--W--P--W--R--N--CONH2 [Indol-R12 W13 --NH2] | – | – | markedly less potent than indolicidin | markedly less potent than indolicidin | markedly less potent than indolicidin | – |
| H2 N--I--L--P--W--K--W--P--W--W--P--W--K--CONH2 (H-ILPWKWPWWPWK-NH2) [Indol-K12 --NH2, indolicidin analog having a deletion of R-13 and a substitution of K-12 for R-12] | – | – | – | – | – | antimicrobial selectivity (antimicrobial activity relative to hemolytic activity) compared with indolicidin (erythrocyte suspension; FIGS. 4-6 and Table 2): greater antimicrobial selectivity than indolicidin |
| H2 N--I--L--P--W--K--W--P--W--W--P--W--R--OH (H-ILPWKWPWWPWR-OH) [Indol-R12 --OH, indolicidin analog] | – | – | markedly less potent than indolicidin | markedly less potent than indolicidin | markedly less potent than indolicidin | – |
| CC[C@H](C)[C@H](N)C(=O)N[C@@H](CC(C)C)C(=O)N1CCC[C@H]1C(=O)N[C@@H](Cc1c[nH]c2ccccc12)C(=O)N[C@@H](CCCCN)C(=O)N[C@@H](Cc1c[nH]c2ccccc12)C(=O)N1CCC[C@H]1C(=O)N[C@@H](Cc1c[nH]c2ccccc12)C(=O)N[C@@H](Cc1c[nH]c2ccccc12)C(=O)N1CCC[C@H]1C(=O)N[C@@H](Cc1c[nH]c2ccccc12)C(=O)N[C@@H](CCCNC(=N)N)C(=O)N[C@@H](CCCNC(=N)N)C(N)=O [Indol-R12 R13 --NH2, H2 N--I--L--P--W--K--W--P--W--W--P--W--R--R--CONH2] | 78.5% | 2.3% | greatest antimicrobial activity | greatest antimicrobial activity | greatest antimicrobial activity | % Hemolysis (erythrocyte suspension; saline, 8% erythrocyte suspension in normal saline, listed as indolicidin): greatest hemolytic activity; input cells killed (Escherichia coli ML35 [3]; 2.5 ug/ml): > 95%; reduction of viability (CFU) (Escherichia coli ML35 [3]; 10 ug/ml, 2×10^6 CFU, 10 mM sodium phosphate pH 7.4, 37° C.): reduced by at least four orders of magnitude; reduction of viability (CFU) [4]: reduced by at least four orders of magnitude; state of the culture (E. coli; after 20 min): essentially was sterilized; reduction of number of E. coli CFU (E. coli; within 5 min): three orders of magnitude; immunogenicity [5]: extremely low immunogenicity |

From patent US5547939A, “Broad spectrum antimicrobial compounds and methods of use” (priority 1994, dated 1996)
